Results reported in patent US10793525B2, “13-cis-RAMBA retinamides that degrade MNKs for treating cancer” (UNIVERSITY OF MARYLAND, BALTIMORE, priority 2014, dated 2020).

Assays:
[1] = tested on: MCF-7 human breast cancer cells; assay: MTT cell proliferation assay, MCF-7; format: cell-based; settings: Homo sapiens, MCF7; MCF-7 cells, MTT, SEM < 10%; read-out: GI50s MCF-7
Description: (§1) MCF-7, MDA-MB-231, MDA-MB-468 and SKBR-3 human breast cancer cells and LNCaP, PC-3, and CWR22Rv1 human prostate carcinoma cells (American Type Culture Collection, Manassas, Va., USA) were maintained in RPMI 1640 media (Gibco-Life Technologies, Grand Island, N.Y., USA) supplemented with 10% fetal bovine serum and 1% penicillin/streptomycin. Western blotting was done as mentioned previously,^8, 13b using the following antibodies: AR, Bad, Bax, Bcl-2, eIF4E, Mnk1, Mnk-2, N-cadherin, PARP, peIF4E^ser209 purchased from Cell Signaling Technology, Danvers, Mass., USA. Anti-Mnk2 was purchased from Sigma-Aldrich and normal rabbit IgG, cyclin D1 was from Santa Cruz Biotechnology, CA, USA.
(§2) Cells were plated (2500 cells/well) in 96 well plates and treated with or without specified compounds as described previously.^8a, 12b
(§3) The clinically relevant retinoids, ATRA and 4-HPR and the Mnk inhibitor, cercosporamide were used as comparators in the assays.

[2] = tested on: MDA-MB-231 human breast cancer cells; assay: MTT cell proliferation assay, MDA-MB-231; format: cell-based; settings: MDA-MB-231 cells, SEM < 10%, read-out: GI50s MDA-MB-231
Description: as §1, §2, §3

MDA-MB-231 cells = assay: Wound-healing assay, MDA-MB-231 cell migration; format: cell-based, human; settings: 5 μM, 24 h
Procedure: (§4) Wound healing assay and matrigel invasion assay were also conducted as described previously using highly metastatic PC-3 cells following treatment with 5 μM of RRs for 24 h.^8a,26
(§5) Based on previous studies with closely related compound,^8 the inhibitory effects of Compounds 16, 20 and 22 on cell migration were evaluated, using the human metastatic BC cell line, MDA-MB-231 by wound-healing assay. MDA-MB-231 cells (5×10^5 cells/well) were seeded on Boyden chamber, grown to confluence and scratches made at experimental tome zero. The cells were treated with indicated compounds (5 μM each) for 24 h. Representative photomicrographs of initial and final wounds are shown at 100× magnification. […] At 24 hours after cell monolayers were wounded, control cells had completely filled in the scratched area.

[3] = tested on: fAR, Mnk1/2, peIF4E, cyclin D1 and cleaved PARP; assay: Western blot of lysates from LNCaP cells; format: cell-based, human; settings: 0.6-20 μM, 24 hours
Description: as §1
Equal protein concentrations from LNCaP cells treated with Compounds 16, 20 and 22 at different concentrations (0.6-20 μM) for 24 hours were separated by SDS-PAGE and western blots probed with antibodies to fAR, Mnk1/2, peIF4E, cyclin D1 and cleaved PARP. Vehicle treated cells were included as a control and all blots were reprobed for β-actin for loading control.

PC-3 cells = assay: Wound-healing assay, PC-3 cell migration; format: cell-based, human; settings: 5 μM, 24 hours
Procedure: as §4
as §5, with “PC” for “BC”, “PC-3” for “MDA-MB-231”, “hours.” for “h.”

For `CC1=C(/C=C/C(C)=C/C=C/C(C)=C\C(=O)Nc2cccc(F)c2)C(C)(C)CCC1n1ccnc1` (centres unmarked) [Compound 20, (2Z,4E,6E,8E)-9-(3-(1H-imidazol-1-yl)-2,6,6-trimethylcyclohex-1-en-1-yl)-N-(3-fluorophenyl)-3,7-dimethylnona-2,4,6,8-tetraenamide], the IC50 [1] was 5.69 µM, the IC50 [2] was 8.51 µM and the “migration of MDA-MB-231 cells” value (MDA-MB-231 cells) was “significantly inhibited migration”. The “cleaved PARP (c-PARP)” value [3] was “induced cleaved PARP”, the “cyclin D1” value [3] was “significant depletion” and the “expression of total eIF4E” value [3] was “no noticeable effects”. For the same compound, the “expressions of fAR, Mnk1 and Mnk2” value [3] was “significantly and in a dose-dependent fashion, reduced” and the “migration of PC-3 cells” value (PC-3 cells) was “significantly inhibited migration”.
